Measurements published in patent US20070083037A1, “Monkey npy y4 receptor and method of evaluating compound” (priority 2003, published 2007).

What was measured:
[1] = system: rhesus monkey NPY Y4 receptor (SEQ ID NO: 3); test: Receptor binding assay using rhesus monkey Y4 receptor-expressing COS-7 cell membrane fractions (SEQ ID NO: 3), inhibition of [125I]human PP binding; details: expression vector SEQ ID NO: 3; COS-7 membrane fraction; 59 pM [125I]human PP; read-out: IC50 against specific [125I]human PP binding
Chain of rhesus monkey NPY Y4 receptor (SEQ ID NO: 3) (as listed by the source): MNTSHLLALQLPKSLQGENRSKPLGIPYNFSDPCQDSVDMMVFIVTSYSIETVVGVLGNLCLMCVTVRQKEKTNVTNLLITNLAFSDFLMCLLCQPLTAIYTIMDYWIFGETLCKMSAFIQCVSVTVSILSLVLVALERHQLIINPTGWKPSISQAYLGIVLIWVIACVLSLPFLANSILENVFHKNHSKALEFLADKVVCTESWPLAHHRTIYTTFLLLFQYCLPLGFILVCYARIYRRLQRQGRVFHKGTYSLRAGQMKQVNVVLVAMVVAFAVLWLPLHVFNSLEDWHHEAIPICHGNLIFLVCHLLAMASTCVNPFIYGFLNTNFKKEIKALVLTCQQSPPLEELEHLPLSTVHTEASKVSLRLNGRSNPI
Procedure: (§1) COS-7 cells were transfected with a pEF1/[…]B plasmid vector containing the nucleotide sequence of SEQ ID NO: 1 or 3, using LipofectAmine Plus (Invitrogen). After 48 hours, the cells were recovered, and disrupted in 10 mM MOPS buffer (pH 7.4) containing 20% sucrose, 154 mM NaCl, 10 mM KCl and 0.8 mM CaCl2, using a Polytron homogenizer (Kinematica) while cooling on ice. The obtained homogenate was centrifuged at 1,000×g, 4° C. for 15 minutes, the supernatant was centrifuged at 90,000×g for 50 minutes, and the precipitate was collected. It was then suspended in 5 mM HEPES/Tris buffer (pH 7.4) and then centrifuged again at 90,000×g for 50 minutes, after which the obtained precipitate was collected as the membrane sample. […] After rinsing with 5 mM Tris buffer (pH 7.4) containing 0.3% bovine serum albumin and drying, MicroScint0 (Perkin-Elmer) was added, and a TopCount HTS (Packard) was used to measure the residual radioactivity on the filter.

[2] = system: rhesus monkey NPY Y4 receptor (SEQ ID NO: 1); test: Receptor binding assay using rhesus monkey Y4 receptor-expressing COS-7 cell membrane fractions (SEQ ID NO: 1), inhibition of [125I]human PP binding; details: expression vector SEQ ID NO: 1; COS-7 membrane fraction; 59 pM [125I]human PP; read-out: IC50 against specific [125I]human PP binding
Chain of rhesus monkey NPY Y4 receptor (SEQ ID NO: 1) (as listed by the source): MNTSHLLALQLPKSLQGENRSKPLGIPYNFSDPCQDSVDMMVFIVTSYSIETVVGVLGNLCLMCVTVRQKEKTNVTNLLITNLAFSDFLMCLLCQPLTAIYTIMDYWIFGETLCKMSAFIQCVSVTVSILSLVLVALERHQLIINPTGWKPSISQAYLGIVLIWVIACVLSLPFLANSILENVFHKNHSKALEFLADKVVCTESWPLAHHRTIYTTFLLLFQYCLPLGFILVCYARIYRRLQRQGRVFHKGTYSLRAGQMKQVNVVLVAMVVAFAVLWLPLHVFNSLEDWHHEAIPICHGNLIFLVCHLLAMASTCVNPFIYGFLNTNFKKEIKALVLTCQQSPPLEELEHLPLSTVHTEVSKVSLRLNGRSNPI
Procedure: as §1

[3] = system: rhesus monkey NPY Y4 receptor (SEQ ID NO: 1); test: [125I]human PP binding assay using COS-7 cells expressing rhesus monkey Y4 receptor (SEQ ID NO: 1); details: COS-7 cells transfected with SEQ ID NO: 1; 50 pM [125I]human PP; non-specific binding with 1 μM human PP
Procedure: (§2) COS-7 cells (American Type Culture Collection) were seeded in a 24-well culturing plate at a density of 5×10^4 cells/well, and after 24 hours, they were transfected with a pEF1/V5-HisB plasmid vector containing the nucleotide sequence of SEQ ID NO: 1 or 3 obtained in Example 1 or the same vector without the insert (mock), using Efectene (Qiagen). After culturing for 48 hours, incubation was performed at 37° C. for 30 minutes in 240 μl/well of reaction buffer (Hanks' balanced salt solution containing 20 mM HEPES and 0.2% bovine serum albumin; pH 7.4) to which 50 pM [^125I]human PP (Perkin-Elmer) had been added. After rinsing with ice-cooled reaction buffer, the cells were lysed and recovered with 2M NaOH and the radioactivity was measured with a γ-counter (Packard, Cobra).
(§3) Non-specific binding was also measured by adding 1 μM human PP to the reaction solution.

[4] = system: rhesus monkey NPY Y4 receptor (SEQ ID NO: 3); test: [125I]human PP binding assay using COS-7 cells expressing rhesus monkey Y4 receptor (SEQ ID NO: 3); details: COS-7 cells transfected with SEQ ID NO: 3; 50 pM [125I]human PP; non-specific binding with 1 μM human PP
Procedure: as §2, §3

Row | Substance | IC50 [1] | IC50 [2] | Specific binding [3] | Specific binding [4]
1 | Neuropeptide-Y [Human NPY] | 97 nM | 100 nM |  | 
2 | [125I]human PP: 125I-labelled human PP radioligand (Perkin-Elmer) |  |  | 1238 cpm | 1394 cpm
